# Measurements reported in patent US20180050993A1, “NOVEL FLUORINATED DERIVATIVES AS EGFR INHIBITORS USEFUL FOR TREATING CANCERS” (Trillium Therapeutics Inc., priority 2015, published 2018).
# Counter-ions that a name gives are not always drawn. Like-named read-outs stand apart in the source and are kept apart here.
# Assays:
# P-gp = target: T1, P-gp (Homo sapiens, UniProt P08183); assay: Evaluation of P-gp efflux in Caco-2 cell monolayers; assay type: in vitro ADME;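 further: Caco-2 monolayers dosed apically or basolaterally with test compound at 5 µM in HBSS with HEPES and glucose, 37 °C, donor and receiver sampled after 120 min, LC/MS peak areas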
# T1 construct: host or cells: Caco-2 (C2BBe1)
# T1 sequence (P08183 whole entry): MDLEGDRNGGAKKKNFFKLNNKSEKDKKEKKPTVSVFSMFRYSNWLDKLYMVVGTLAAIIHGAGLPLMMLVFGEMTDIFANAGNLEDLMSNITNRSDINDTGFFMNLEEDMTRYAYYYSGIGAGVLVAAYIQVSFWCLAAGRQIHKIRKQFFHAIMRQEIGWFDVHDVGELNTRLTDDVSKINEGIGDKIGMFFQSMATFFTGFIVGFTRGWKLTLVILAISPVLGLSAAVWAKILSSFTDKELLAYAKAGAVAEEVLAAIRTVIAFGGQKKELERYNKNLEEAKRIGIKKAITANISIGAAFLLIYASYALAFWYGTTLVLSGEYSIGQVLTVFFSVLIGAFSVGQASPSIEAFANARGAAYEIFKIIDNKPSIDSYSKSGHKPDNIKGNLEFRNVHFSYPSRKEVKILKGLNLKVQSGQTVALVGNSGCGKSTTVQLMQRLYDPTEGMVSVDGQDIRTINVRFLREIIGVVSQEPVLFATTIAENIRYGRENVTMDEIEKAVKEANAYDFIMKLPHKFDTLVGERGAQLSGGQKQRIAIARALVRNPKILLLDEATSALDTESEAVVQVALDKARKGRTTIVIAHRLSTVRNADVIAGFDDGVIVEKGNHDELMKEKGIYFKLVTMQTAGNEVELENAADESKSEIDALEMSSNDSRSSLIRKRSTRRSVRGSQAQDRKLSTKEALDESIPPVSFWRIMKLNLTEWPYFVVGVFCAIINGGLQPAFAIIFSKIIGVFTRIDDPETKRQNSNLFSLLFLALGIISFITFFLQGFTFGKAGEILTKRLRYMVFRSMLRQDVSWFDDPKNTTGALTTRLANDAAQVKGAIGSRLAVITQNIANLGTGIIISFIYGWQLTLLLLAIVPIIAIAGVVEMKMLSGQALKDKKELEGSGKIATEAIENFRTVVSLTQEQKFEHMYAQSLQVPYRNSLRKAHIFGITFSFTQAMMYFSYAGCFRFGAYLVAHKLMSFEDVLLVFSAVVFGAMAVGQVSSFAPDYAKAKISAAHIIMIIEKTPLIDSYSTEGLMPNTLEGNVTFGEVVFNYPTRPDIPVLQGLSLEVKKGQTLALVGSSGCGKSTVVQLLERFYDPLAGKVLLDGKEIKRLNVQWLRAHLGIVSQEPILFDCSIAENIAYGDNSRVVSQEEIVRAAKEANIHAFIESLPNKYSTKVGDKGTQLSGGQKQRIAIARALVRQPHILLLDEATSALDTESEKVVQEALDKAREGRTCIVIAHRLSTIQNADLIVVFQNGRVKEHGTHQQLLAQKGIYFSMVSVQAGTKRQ
# ACHN = assay: NCI screening panel, growth %; assay type: cell-based, human; details: Renal
# Procedure: (§1) After 24 h, two plates of each cell line are fixed in situ with TCA, to represent a measurement of the cell population for each cell line at the time of drug addition (Tz). Experimental drugs are solubilised in dimethyl sulfoxide at 400-fold the desired final maximum test concentration and stored frozen prior to use. At the time of drug addition, an aliquot of frozen concentrate is thawed and diluted to twice the desired final maximum test concentration with complete medium containing 50 μg/ml gentamicin. Additional four, 10-fold or log serial dilutions are made to provide a total of five drug concentrations plus control. Aliquots of 100 μl of these different drug dilutions are added to the appropriate microtiter wells already containing 100 μl of medium, resulting in the required final drug concentrations.
# (§2) Following drug addition, the plates are incubated for an additional 48 h at 37° C., 5% CO2, 95% air, and 100% relative humidity. For adherent cells, the assay is terminated by the addition of cold TCA (trichloroacetic acid). Cells are fixed in situ by the gentle addition of 50 μl of cold 50% (w/v) TCA (final concentration, 10% TCA) and incubated for 60 minutes at 4° C. The supernatant is discarded, and the plates are washed five times with tap water and air dried. Sulforhodamine B (SRB) solution (100 μl) at 0.4% (w/v) in 1% acetic acid is added to each well, and plates are incubated for 10 minutes at room temperature. After staining, unbound dye is removed by washing five times with 1% acetic acid and the plates are air dried. Bound stain is subsequently solubilised with 10 mM trizma base, and the absorbance is read on an automated plate reader at a wavelength of 515 nm. For suspension cells, the methodology is the same except that the assay is terminated by fixing settled cells at the bottom of the wells by gently adding 50 μl of 80% TCA (final concentration, 16% TCA). Using the seven absorbance measurements [time zero, […], control growth, (C), and test growth in the presence of drug at the five concentration levels (Ti)], the percentage growth is calculated at each of the drug concentration levels. Percentage growth inhibition is calculated as: [(Ti−Tz)/(C−Tz)]×100 for concentrations in which Ti>/=Tz and [(Ti−Tz)/Tz]×100 for concentrations in which Ti<Tz.
# (§3) Three dose response parameters are calculated for each experimental agent. […] The drug concentration resulting in total growth inhibition (TGI) is calculated from Ti=Tz. […] Values are calculated for each of these three parameters if the level of activity is reached. However, if the effect is not reached or is exceeded, the value for that parameter is expressed as greater or less than the maximum or minimum concentration tested.
# OVCAR-5 = assay: NCI screening panel, growth %; assay type: cell-based, human; details: Ovarian
# Procedure: as §1, §2, §3
# SF-295 = assay: NCI screening panel, growth %; assay type: cell-based, human; details: CNS
# Procedure: as §1, §2, §3
# OVCAR-8 = assay: NCI screening panel, growth %; assay type: cell-based, human; details: Ovarian
# Procedure: as §1, §2, §3
# IGROV1 = assay: NCI screening panel, growth %; assay type: cell-based, human; details: Ovarian
# Procedure: as §1, §2, §3
# MOLT-4 = assay: NCI screening panel, growth %; assay type: cell-based, human; details: Leukemia
# Procedure: as §1, §2, §3
# HOP-62 = assay: NCI screening panel, growth %; assay type: cell-based, human; details: NSCLC
# Procedure: as §1, §2, §3
# NCI/ADR-RES = assay: NCI screening panel, growth %; assay type: cell-based, human; details: Ovarian
# Procedure: as §1, §2, §3
# HCC-2998 = assay: NCI screening panel, growth %; assay type: cell-based, human; details: Colon
# Procedure: as §1, §2, §3
# CAKI-1 = assay: NCI screening panel, growth %; assay type: cell-based, human; details: Renal
# Procedure: as §1, §2, §3
# SN12C = assay: NCI screening panel, growth %; assay type: cell-based, human; details: Renal
# Procedure: as §1, §2, §3
# SK-MEL-28 = assay: NCI screening panel, growth %; assay type: cell-based, human; details: Melanoma
# Procedure: as §1, §2, §3
# SW-620 = assay: NCI screening panel, growth %; assay type: cell-based, human; details: Colon
# Procedure: as §1, §2, §3
# KM12 = assay: NCI screening panel, growth %; assay type: cell-based, human; details: Colon
# Procedure: as §1, §2, §3
# A498 = assay: NCI screening panel, growth %; assay type: cell-based, human; details: Renal
# Procedure: as §1, §2, §3
# OVCAR-4 = assay: NCI screening panel, growth %; assay type: cell-based, human; details: Ovarian
# Procedure: as §1, §2, §3
# HS 578T = assay: NCI screening panel, growth %; assay type: cell-based, human; details: Breast
# Procedure: as §1, §2, §3
# UACC-62 = assay: NCI screening panel, growth %; assay type: cell-based, human; details: Melanoma
# Procedure: as §1, §2, §3
# MCF7 = assay: NCI screening panel, growth %; assay type: cell-based, human; details: Breast
# Procedure: as §1, §2, §3
# NCI-H226 = assay: NCI screening panel, growth %; assay type: cell-based, human; details: NSCLC
# Procedure: as §1, §2, §3
# OVCAR-3 = assay: NCI screening panel, growth %; assay type: cell-based, human; details: Ovarian
# Procedure: as §1, §2, §3
# SR = assay: NCI screening panel, growth %; assay type: cell-based, human; details: Leukemia
# Procedure: as §1, §2, §3
# MDA-MB-435 = assay: NCI screening panel, growth %; assay type: cell-based, human; details: Melanoma
# Procedure: as §1, §2, §3
# M14 = assay: NCI screening panel, growth %; assay type: cell-based, human; details: Melanoma
# Procedure: as §1, §2, §3
# DU-145 = assay: NCI screening panel, growth %; assay type: cell-based, human; details: Prostate
# Procedure: as §1, §2, §3
# SF-539 = assay: NCI screening panel, growth %; assay type: cell-based, human; details: CNS
# Procedure: as §1, §2, §3
structure (smiles),measurement,setting,value
"Fc1ccc(Nc2ncnc3cc(OCCOC(F)F)c(OCCOC(F)F)cc23)c(F)c1Cl [Compound 2D•HCl, N-(3-chloro-2,4-difluoro-phenyl)-6,7-bis[2-(difluoromethoxy)ethoxy]quinazolin-4-amine]","recovery at 120 min, 5 μM","P-gp; Caco-2, pH 7.4, with none (verapamil 0 μM), Caco-2, Verapamil 0 μM, read-out: Recovery (%) AP-BL",21.8%
same,"recovery at 120 min, 5 μM","P-gp; Caco-2, pH 7.4, with none (verapamil 0 μM), Caco-2, Verapamil 0 μM, read-out: Recovery (%) BL-AP",30.4%
same,"recovery at 120 min, 5 μM","P-gp; Caco-2, pH 7.4, with verapamil 100 μM, Caco-2, Verapamil 100 μM, read-out: Recovery (%) AP-BL",29.7%
same,"recovery at 120 min, 5 μM","P-gp; Caco-2, pH 7.4, with verapamil 100 μM, Caco-2, Verapamil 100 μM, read-out: Recovery (%) BL-AP",28.9%
same,"Papp A→B at 120 min, 5 μM","P-gp; pH 7.4, Caco-2, Verapamil 0 μM",4.02 ×10⁻⁶ cm/s
same,"Papp B→A at 120 min, 5 μM","P-gp; pH 7.4, Caco-2, Verapamil 0 μM",2.33 ×10⁻⁶ cm/s
same,"efflux ratio at 120 min, 5 µM","P-gp; pH 7.4, Caco-2, Verapamil 0 μM",0.58
same,Growth %,ACHN,17.88%
same,Growth %,OVCAR-5,26.63%
same,Growth %,SF-295,76.73%
same,Growth %,OVCAR-8,69.11%
same,Growth %,IGROV1,6.79%
same,Growth %,MOLT-4,55.03%
same,Growth %,HOP-62,64.36%
same,Growth %,NCI/ADR-RES,54.63%
same,Growth %,HCC-2998,91.93%
same,Growth %,CAKI-1,15.86%
same,Growth %,SN12C,59.26%
same,Growth %,SK-MEL-28,81.10%
same,Growth %,SW-620,91.49%
same,Growth %,KM12,85.84%
same,Growth %,A498,13.11%
same,Growth %,OVCAR-4,0.00%
same,Growth %,HS 578T,68.48%
same,Growth %,UACC-62,82.70%
same,Growth %,MCF7,66.06%
same,Growth %,NCI-H226,84.65%
same,Growth %,OVCAR-3,60.72%
same,Growth %,SR,75.96%
same,Growth %,MDA-MB-435,56.24%
same,Growth %,M14,59.47%
same,Growth %,DU-145,35.29%
same,Growth %,SF-539,73.76%
